Measured values from publication PMC4563558, “Discovery of a series of novel phenylpiperazine derivatives as EGFR TK inhibitors” (Scientific Reports, 2015).

How the values were obtained:
[1] = Acute oral toxicity, bodyweights; type: in vivo; conditions: mice
Protocol: Before the acute toxicity experiment, mice were stopped being served food but water was kept for 3 h. The test substances were dissolved in maize germ oil[24]. The preliminary experiment was performed as follows: Four dose levels, 100, 500, 2000, and 5000 mg/kg body weight and three mice for each level were used. We observed the death and evident toxicity in 7 days to determine the general concentration range. Then the administration doses were graded with geometric progression for ease of the calculation of LD50. Mice were randomly divided into groups (10 mice/group). […] The control groups received maize germ oil only. After the administration, food was withheld for 2 h.

A549 cells = test: Tumor volume in nude mice inoculated with A549 cells; type: in vivo; conditions: for Test/Control (tumor volume): 40 mg/kg/2 days
Protocol: To further evaluate the antitumor effect of compound 3p in vivo, we performed an animal study. Mice were inoculated subcutaneously with A549 cells (5.0 × 10^6) on their shoulders. […]. […] […].
Male BALB/c nude mice, 35–40 days old and weighing 18–22 g, were supplied by Shanghai Laboratory Animal Limited Company. The mice were raised in air-conditioned rooms under controlled lighting (12 h lighting/day) and were fed with standard laboratory food and water ad libitum. Before injection into the mice, the lung cancer cells (A549) were harvested by trypsinization and washed three times with cold serum-free medium and then injected in a total volume of 0.1 mL using a 1-mL latex-free syringe (BD) within 30 min of harvest. Mice were inoculated subcutaneously with A549 cells (5.0 × 10^6) on their shoulders. When the tumor had increased to 100 mm^3 , the mice were equally randomized into 4 groups (with 6 mice/group): saline tumor control group; compound 3p 20 mg/kg/2 days group; compound 3p 40 mg/kg/2 days group; […]. The control group received 0.9% normal saline. Tumor size was measured once every 2 days in two per-pendicular dimensions with Vernier calipers and converted to tumor volume (TV) using the formula: (ab^2)/2, where a and b refer to the longer and shorter dimensions, respectively. The body weight of the animals was measured twice a week at the same time as the tumor dimension measurement and the mortality was monitored daily. After the treatments, all mice were killed and weighed simultaneously, and then tumor was segregated and weighed.

[2] = tested on: MCF-7, HeLa and A549 cell lines; test: Anticancer activities discussed in text (cell line not specified); type: cell-based, human; conditions: comparison within series and with positive control
Protocol: According to the data presented in Table 1, it could be concluded that the activity of the tested compounds may be correlated to the variation and modifications of structure.
(§1) The in vitro anticancer activities of the prepared compounds against MCF-7, HeLa and A549 cell lines were evaluated as described in the literature[23] with some modifications. Target tumor cells were grown to log phase in DMEM medium supplemented with 10% fetal bovine serum. After reaching a dilution of 1 × 10^5 cells mL^−1 with the medium, 100 μL of the obtained cell suspension was added to each well of 96-well culture plates. Subsequently, incubation was performed at 37 °C in 5% CO2 atmosphere for 48 h before the cytotoxicity assessment. Tested samples at preset concentrations were added to 6 wells with Erlotinib being employed as a positive reference. After 72 h exposure period, 25 μL of PBS containing 2.5 mg mL^−1 of MTT was added to each well. After 4 h, the medium was replaced by 150 μL DMSO to dissolve the purple formazan crystals produced. The absorbance at 570 nm of each well was measured with an ELISA plate reader. The data represented the mean of three independent experiments in triplicate and were expressed as means ± SD. The IC50 value was defined as the concentration at which 50% of the cells could survive.

HeLa = test: MTT antiproliferation assay, HeLa; type: cell-based; conditions: Homo sapiens, 72 h exposure, read-out: IC50 ± SD, HeLa
Protocol: (§2) To test the antiproliferative activities of the synthesized compounds (see supplementary Scheme S1 and S2), the target compounds were evaluated in vitro antiproliferation assays against three human cancer cell lines (MCF-7, HeLa and A549) and one human normal lung cell line.
as §1

Lung cells = test: MTT assay, human normal lung cell line; type: cell-based; conditions: read-out: IC50 ± SD, Lung cells
Protocol: as §2, §1

bFGF = test: Kinase selectivity assay (kit), bFGF; type: biochemical; conditions: read-out: Inhibition of bFGF IC50
Protocol: (§3) To validate whether the above anti-proliferative effect was produced by interaction of EGFR protein and the synthesized compounds, the synthesized compounds were evaluated for their abilities to inhibit the activity of four protein kinases relevant to cancer: EGFR, VEGFR2, bFGF, PDGFR. […] Additionally, the activity data inferred that the IC50 values of these compounds shared a similar tendency with their relevant IC50 values of anti-proliferative assay. […] Therefore, we could conclude that the synthesized inhibitors can inhibit the function of EGFR and the anti-proliferative effect was produced partly by interaction of EGFR protein and the compounds.
(§4) The EGFR, VEGFR2, bFGF and PDGFR Kinase Assay Kit were purchased from Bio-Swamp. The experiments were performed according to the manufacturer’s instructions.

A549 = test: MTT antiproliferation assay, A549; type: cell-based; conditions: Homo sapiens, 72 h exposure, read-out: IC50 ± SD, A549
Protocol: as §2, §1

Erythrocytes = test: Hemolysis test; type: cell-based; conditions: human erythrocytes, 3 h incubation
Protocol: Hemolytic activity was assayed using fresh capillary human blood. Erythrocytes were collected by centrifuging the blood three times in chilled phosphate buffered saline (PBS at 4 °C) at 1000 × g for 10 min. The final pellet was resuspended in PBS to give a 2% w/v solution. Using a microtitre plate, 100 μL of the erythrocyte solution was added to dextran, PLL, stearyl-PLL or stearyl-PLL+LDL (1–1000/μg/mL) in a volume of […]. Samples were then incubated for 3 h and the microtitre plate was centrifuged then at 1000 × g for 10 min and the supernatants (100 μL) transferred into a new microtitre plate. Hemoglobin release was determined spectrophotometrically using a microtitre plate reader (absorbance at 550 nm). Results were expressed as the amount of released hemoglobin induced by the compounds as a percentage of the total. Hemolysis test was tested according to the guide of biological evaluation of medical device (SFDA, China).

MCF-7 = test: MTT antiproliferation assay, MCF-7; type: cell-based; conditions: Homo sapiens, MCF7, 72 h exposure, read-out: IC50 ± SD, MCF-7
Protocol: as §2, §1

in vitro = type: cell-based; conditions: mouse
Protocol: The cytotoxic activity in vitro was measured against mouse fibroblast NIH-3T3 cells using the MTT assay. Cells were cultured in a 96-well plate at a density of 5 × 10^5 cells and different concentrations of compounds were respectively added to each well. The incubation was permitted at 37 °C, 5% CO2 atmosphere for 24 h before the cytotoxicity assessments. 20 μL MTT reagent (4 mg/mL) was added per well 4 h before the end of the incubation. Four hours later, the plate was centrifuged at 1200 rcf for 5 min and the supernatants were removed, each well was added with 200 μL DMSO. The absorbance was measured at a wavelength of 490 nm (OD 490 nm) on an ELISA microplate reader. Three replicate wells were used for each concentration and each assay was measured three times, after which the average of IC50 was calculated.

EGFR = biological target: T1, EGFR (Homo sapiens, UniProt P00533); test: Kinase selectivity assay (kit), EGFR; type: biochemical; conditions: read-out: Inhibition of EGFR IC50
T1 construct: purchased Bio-Swamp
Protocol: as §4

VEGFR2 = biological target: T2, VEGFR2 (Homo sapiens, UniProt P35968); test: Kinase selectivity assay (kit), VEGFR2; type: biochemical; conditions: read-out: Inhibition of VEGFR2 IC50
T2 construct: purchased Bio-Swamp
Protocol: as §3, §4

PDGFR = test: Kinase selectivity assay (kit), PDGFR; type: biochemical; conditions: read-out: Inhibition of PDGFR IC50
Protocol: as §3, §4

T1 sequence (P00533 25-1210): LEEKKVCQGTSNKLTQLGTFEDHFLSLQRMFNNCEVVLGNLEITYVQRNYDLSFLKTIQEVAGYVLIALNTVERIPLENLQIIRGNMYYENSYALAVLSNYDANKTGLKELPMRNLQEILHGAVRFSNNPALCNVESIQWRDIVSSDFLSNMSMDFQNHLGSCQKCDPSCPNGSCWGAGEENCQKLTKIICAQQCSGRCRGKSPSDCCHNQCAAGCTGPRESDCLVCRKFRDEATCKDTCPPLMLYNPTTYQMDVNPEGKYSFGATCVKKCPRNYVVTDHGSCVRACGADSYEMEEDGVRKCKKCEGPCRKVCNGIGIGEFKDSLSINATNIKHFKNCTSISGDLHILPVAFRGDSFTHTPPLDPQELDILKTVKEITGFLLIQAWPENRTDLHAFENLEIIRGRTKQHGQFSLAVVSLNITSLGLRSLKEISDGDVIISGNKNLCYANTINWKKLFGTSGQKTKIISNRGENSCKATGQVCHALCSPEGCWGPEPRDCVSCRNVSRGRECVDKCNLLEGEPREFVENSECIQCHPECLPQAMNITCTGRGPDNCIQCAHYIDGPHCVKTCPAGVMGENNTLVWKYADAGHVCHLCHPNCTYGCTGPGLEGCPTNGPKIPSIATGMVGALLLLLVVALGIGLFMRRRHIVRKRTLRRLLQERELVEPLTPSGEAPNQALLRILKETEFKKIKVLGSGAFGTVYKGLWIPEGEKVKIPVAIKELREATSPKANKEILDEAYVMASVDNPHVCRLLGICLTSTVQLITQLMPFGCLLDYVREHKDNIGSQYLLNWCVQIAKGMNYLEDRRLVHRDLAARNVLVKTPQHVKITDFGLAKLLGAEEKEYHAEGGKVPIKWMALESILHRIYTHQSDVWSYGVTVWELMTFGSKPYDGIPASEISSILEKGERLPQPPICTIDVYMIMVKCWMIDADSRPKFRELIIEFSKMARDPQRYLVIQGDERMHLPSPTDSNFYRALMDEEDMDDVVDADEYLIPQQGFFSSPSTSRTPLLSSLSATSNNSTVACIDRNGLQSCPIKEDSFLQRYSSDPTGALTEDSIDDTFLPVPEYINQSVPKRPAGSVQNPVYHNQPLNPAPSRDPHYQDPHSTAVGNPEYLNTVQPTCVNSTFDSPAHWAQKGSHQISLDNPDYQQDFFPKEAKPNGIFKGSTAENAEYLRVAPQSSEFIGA
T2 sequence (P35968 20-1356, species assumed): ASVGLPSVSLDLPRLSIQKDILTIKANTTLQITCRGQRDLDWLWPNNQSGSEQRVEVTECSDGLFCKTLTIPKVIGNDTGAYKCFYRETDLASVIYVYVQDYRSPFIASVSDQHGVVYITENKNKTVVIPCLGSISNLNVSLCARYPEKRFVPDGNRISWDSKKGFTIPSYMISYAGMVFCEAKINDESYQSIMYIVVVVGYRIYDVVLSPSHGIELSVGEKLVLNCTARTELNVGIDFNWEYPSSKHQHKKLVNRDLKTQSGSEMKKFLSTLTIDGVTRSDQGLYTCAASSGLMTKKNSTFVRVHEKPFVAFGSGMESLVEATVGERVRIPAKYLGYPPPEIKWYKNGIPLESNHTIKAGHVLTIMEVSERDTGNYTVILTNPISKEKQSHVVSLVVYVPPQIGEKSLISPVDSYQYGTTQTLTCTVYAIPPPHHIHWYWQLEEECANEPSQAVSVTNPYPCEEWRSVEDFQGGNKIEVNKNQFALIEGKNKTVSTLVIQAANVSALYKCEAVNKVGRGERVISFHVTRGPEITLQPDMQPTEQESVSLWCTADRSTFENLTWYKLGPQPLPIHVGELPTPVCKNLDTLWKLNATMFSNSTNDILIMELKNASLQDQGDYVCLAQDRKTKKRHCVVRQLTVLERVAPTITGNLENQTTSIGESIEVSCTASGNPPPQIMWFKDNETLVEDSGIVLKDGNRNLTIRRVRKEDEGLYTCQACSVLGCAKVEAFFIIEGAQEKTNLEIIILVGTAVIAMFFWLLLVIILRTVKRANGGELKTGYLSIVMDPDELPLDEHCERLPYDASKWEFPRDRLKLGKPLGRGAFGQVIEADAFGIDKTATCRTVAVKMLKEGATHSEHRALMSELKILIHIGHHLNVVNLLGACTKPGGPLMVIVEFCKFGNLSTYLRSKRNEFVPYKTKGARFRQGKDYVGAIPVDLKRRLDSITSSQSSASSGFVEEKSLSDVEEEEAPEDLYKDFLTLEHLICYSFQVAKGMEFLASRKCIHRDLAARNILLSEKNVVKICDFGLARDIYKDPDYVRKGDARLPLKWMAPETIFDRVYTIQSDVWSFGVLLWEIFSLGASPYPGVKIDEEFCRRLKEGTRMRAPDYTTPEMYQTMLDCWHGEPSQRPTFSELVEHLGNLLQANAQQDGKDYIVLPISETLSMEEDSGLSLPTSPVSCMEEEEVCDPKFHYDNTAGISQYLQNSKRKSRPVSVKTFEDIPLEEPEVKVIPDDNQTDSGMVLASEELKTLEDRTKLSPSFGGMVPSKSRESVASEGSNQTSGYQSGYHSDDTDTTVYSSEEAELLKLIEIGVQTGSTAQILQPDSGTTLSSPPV

## COc1cc(OC)nc(NC(=O)CN2CCN(c3ccc(Cl)c(Cl)c3)CC2)n1 [3p, 2-(4-(3,4-dichlorophenyl)piperazin-1-yl)-N-(4,6-dimethoxypyrimidin-2-yl)acetamide]
[1]; day 0
  Bodyweights 0 day ± SD: 22.12 ± 1.13 g
[1]; day 7
  Bodyweights 7 days ± SD: 27.33 ± 1.08 g
A549 cells; 40 mg/kg, day 14
  Weight of tumor: significantly reduced
A549 cells; day 4
  Test/Control (tumor volume): 42.79%
A549 cells; day 6
  Test/Control (tumor volume): 49.61%
A549 cells; day 8
  Test/Control (tumor volume): 50.79%
A549 cells; day 10
  Test/Control (tumor volume): 60.00%
A549 cells; day 12
  Test/Control (tumor volume): 61.22%
A549 cells; 14-day treatment, nude mice
  Effect on mice body weight: did not observe significant growth inhibition of mice body weight
A549 cells; mouse, in vivo
  Mortality during the treatment: none of the mice died
[2]
  Anticancer / antitumor activity (in words): most potent anticancer activities
HeLa
  IC50: 80 ± 0.2 nM
Lung cells
  IC50: 189000 ± 3820 nM
bFGF
  IC50: 27100 ± 3170 nM
A549
  IC50: 50 ± 0.3 nM
Erythrocytes
  Hemolysis LC30 (lytic concentration 30%): >10000 µg/mL
MCF-7
  IC50: 220 ± 1 nM
In vitro
  IC50 at 24 h: 239000 ± 4030 nM
EGFR
  IC50: 20 ± 3 nM
VEGFR2
  IC50: 2150 ± 60 nM
PDGFR
  IC50: 17300 ± 950 nM
